Laboratory results taken from patent EP0403963A2, “Anthracycline derivatives, process for their preparation and their use as medicaments” (priority 1989, dated 1990).
≈ marks a conversion by molar mass, not a printed value. Where two headings read alike, the source gives them in different places.

Experiments:
L1210 Leukämiezellen = test: Proliferation test (MTT), continuous incubation; assay type: cell-based, Maus; conditions: for IC50: Mus musculus, read-out: Zytotoxizität (Dauerinkubation) IC50
Description: Kontrollen bestehen aus Zellen, die lediglich mit frischem Medium inkubiert werden. Alle Bestimmungen werden als 4-fache Bestimmung durchgeführt. Nach 65 Stunden werden 50 ul MTT (3-(4,5-Dimethylthiazol-2-yl)-2,5-diphenyl-tetrazoliumbromid, 2,5 mg/mi in PBS) zugegeben. MTT wird durch lebende Zellen zu einem […], unlöslichen Formazan-Farbstoff reduziert. Nach einer weiteren 7-stündigen Inkubation wird das überstehende Medium vorsichtig abgesaugt. Der Formazan-Farbstoff wird durch Zugabe von jeweils 100 ul DMSO in die Vertiefungen der Mikrotiterplatte und vorsichtiges Schütteln gelöst. Die Extinktion der jeweiligen Lösung wird mit Hilfe eines Multiscan Photometers 340 CC, Fa. Flow, bei 492 nm gemessen.

[1] = Acute toxicity, intravenous injection; assay type: in vivo, Mäusen; conditions: mouse, in vivo, iv; i.v. on day 0, 3 and 6; survivors counted on day 20; 2 mice per dose; read-out: akute Toxizität LD50
Description: (§1) Zur Ermittlung der akuten Toxizität wurden BDFi-Mäusen am Tag 0, Tag 3 und Tag 6 unterschiedliche Dosen der Testsubstanz, gelöst in 0,4 ml physiologischer Kochsalzlösung, intravenös injiziert. Kontrollgruppen erhielten lediglich 0,4 ml physiologischer Kochsalzlösung. Pro Konzentration der Testsubstanz wurden 2 Mäuse verwendet. Am Tag 20 wurde die Zahl der überlebenden Mäuse und daraus die LD50 ermittelt. Die Toxizität der hier beschriebenen Verbindungen im Vergleich zu Adriamycin ist in Tabelle 1 zusammengefaßt.

[2] = Qualitative solubility of the isolated substance; assay type: physicochemical; conditions: solvents: Methanol, Ethylacetat, Chloroform, Wasser, Hexan
BDFi-Mäusen = test: Acute toxicity, intravenous injection; assay type: in vivo; conditions: i.v. on day 0, 3 and 6; survivors counted on day 20; 2 mice per dose; 28800 min
Description: as §1

[3] = L1210 cells, 72 h incubation, MTT readout at 492 nm

Compound | IC50 (L1210 Leukämiezellen; L1210, 72 h) [µg/mL] | LD50 at 480 h [1] [mg/kg] | Löslichkeit [2] | Zytotoxizität (Dauerinkubation) IC50 (L1210 Leukämiezellen; [3]) | akute Toxizität LD50 (BDFi-Mäusen) [mg/kg] | IC50 (L1210 Leukämiezellen; [3]) [µg/mL]
COc1cccc2c1C(=O)c1c(O)c3c(c(O)c1C2=O)C[C@@](O)(C(=O)CO)C[C@@H]3O[C@H]1C[C@H](N)[C@H](O)[C@H](C)O1 [Adriamycin, reference compound] | 0.02 to 0.03 (≈ 0.0368 to 0.0552 µM) | 10 |  |  |  | 
Cytorhodin Z |  |  | leicht löslich in Methanol, Ethylacetat, Chloroform, unlöslich in Wasser und Hexan | 0,33 µg/ml | 10 to 25 | 
CC[C@@]1(O[C@H]2C[C@H](N(C)C)[C@H](O)[C@H](C)O2)CCc2c(O)c3c(c(O)c2[C@H]1O[C@H]1C[C@H](N(C)C)[C@H](O)[C@H](C)O1)C(=O)c1cccc(O)c1C3=O [9-0,10-0-Bis (α-L-rhodosaminyl)-γ-rhodomycinon] |  | 25 to 50 | leicht löslich in Methanol, Ethylacetat, Chloroform, unlöslich in Wasser und Hexan |  |  | 0.35 (≈ 0.511 µM)
